These results are taken from patent US3931198A, “2-Amino-5-spiro substituted oxazoline-4-one compounds” (Abbott Laboratories, priority 1973, dated 1976).

The subject of one data set is central nervous system. Briefly: CNS activity (depressant or stimulant) in test mice. Format: in vivo. The conditions noted are these: i.p. The procedure: (§1) Table VI below details the activity of the various species of this series along with the dosages utilized expressed in mg/kg of body weight and the lethal dosage at which 50 percent of the animals expire (^LD 50) for each of the compounds. Unless otherwise indicated, the dosage and the ^LD 50 were administered by intraperitoneal injection. It is to be understood, of course, that the particular route of administration is not critical to the manifestation of biological effects.

Data set [1] can be described thus: LD50, lethal dosage at which 50 percent of the animals expire. To be noted: mouse, in vivo, ip; mice, intraperitoneal injection unless otherwise indicated. The procedure:
as §1

The subject of a further data set is rats. Briefly: Learning and retention (escape time, jump out test) after electroconvulsive shock on a modified Cook-Weidley apparatus. In kind it is in vivo. The conditions noted are these: for Mean Escape Time, Retention Trial: 1 hour after last acquisition trial. The procedure: In addition to the foregoing activity, the administration of some of these novel compounds to warm-blooded animals results in an increased rate of learning by the animal coupled with a prolonged period of retention of the learned behavior.
The behavioral effects resulting from the administration of these compounds to rats were evaluated on a modified Cook-Weidley apparatus (L. Cook and E. Weidley, Ann. N.Y. Acad. Sci., 66, 790, 1957). The apparatus consists of a chamber with a grid flooring and an escape platform outside the chamber. The electric shock to the grid floor was controlled by a rheostat mechanism and scrambler. Rats were divided into 2 groups for each test trial. One group was administered saline as the control and the other group the test compound about 1/2 hour prior to electroconvulsive shock. It is known that electroconvulsive shock induces a state of proactive amnesia or an impaired learning rate (Deutsch, J.A., 1962, Ann. Rev. Psychol., 24, 259). Then, 15 minutes after electroconvulsive shock, the rats were given 10 acquisition trials on the jump out test to measure learning rates. Each acquisition trial consisted of 15 seconds in the chamber without any stimulation followed by 10 seconds of buzzer stimulation and culminated by 5 seconds of buzzer-plus-shock stimulation. The time from entrance into the apparatus until the rat jumps out is recorded as the escape time. Retention of the learned behavioral pattern was tested by repeating the test one hour after the last acquisition trial. The test sequence for each trial was terminated upon successful completion of the task, e.g., jumping out of the chamber. EFFECT OF 2-AMINO-8-METHYL-1-OXA-3,8-DIAZASPIRO [4,5]DEC-2-EN-4-ONE INTRAPERITONEAL ADMINISTRATION Mean Escape Time -- Sec. Trial Test Cpd. -- 10 mg/kg Control ______________________________________ 1 29.8 ± 0.3 30.0 ± 0.0 2 29.5 ± 0.5 29.3 ± 0.8 3 13.8 ± 1.7 26.0 ± 2.4 4 12.0 ± 2.1 22.0 ± 3.6 5 7.0 ± 1.6 22.3 ± 3.8 6 7.8 ± 1.5 18.5 ± 1.9 7 6.5 ± 1.6 18.0 ± 2.3 8 7.0 ± 2.2 13.0 ± 2.9 9 10.8 ± 3.0 15.6 ± 2.1 10 9.0 ± 1.2 13.9 ± 1.7 Retention Trial -- 1 hour after last Acquisition Trial: 13.8 ± 1.4 15.8 ± 3.3 EFFECT OF 2-AMINO-7,7,9-TRIMETHYL-1-OXA-3-AZASPIRO [4,5]DEC-2-EN-4-ONE INTRAPERITONEAL ADMINISTRATION Mean Escape Time -- Sec. Trial Test Cpd. 20 mg/kg Control ______________________________________ 1 30.0 ± 0.0 30.0 ± 0.0 2 29.0 ± 0.4 29.5 ± 0.2 3 21.2 ± 3.0 19.7 ± 5.2 4 17.7 ± 5.4 20.2 ± 5.3 5 14.7 ± 1.8 18.0 ± 2.7 6 18.0 ± 3.9 18.5 ± 3.6 7 10.0 ± 2.1 20.2 ± 4.7 8 5.5 ± 1.8 16.5 ± 3.8 9 6.7 ± 2.5 18.7 ± 5.0 10 7.2 ± 2.8 13.7 ± 4.4 Retention Trial -- 1 hour after last Acquisition Trial: 8.0 ± 2.6 20.2 ± 3.3 EFFECT OF 2-AMINO-7,9-DIMETHYL-1-OXA-3-AZASPIRO [4,5]DEC-2-EN-4-ONE ORAL ADMINISTRATION Mean Escape Time -- Sec. Trial Test Cpd. -- 20 mg/kg Control ______________________________________ 1 30.0 ± 0.0 30.0 ± 0.0 2 29.2 ± 0.4 29.7 ± 0.2 3 20.0 ± 4.3 27.2 ± 1.8 4 7.5 ± 2.9 19.7 ± 2.4 5 4.7 ± 0.8 16.0 ± 3.2 6 7.2 ± 2.0 14.7 ± 3.6 7 8.0 ± 1.6 18.7 ± 4.5 8 10.5 ± 3.7 11.0 ± 2.6 9 7.0 ± 1.2 13.0 ± 3.2 10 7.5 ± 2.1 15.5 ± 4.1 Retention Trial -- 1 hour after last Acquisition Trial: 6.7 ± 1.4 15.7 ± 5.0 ______________________________________

One may read the LD50 as the dose at which mortality reaches 50%. For the molecule `NC1=NC(=O)C2(CCCCC2)O1` [2-amino-1-oxa-3-azaspiro[4,5]dec-2-en-4-one], the Activity entry with central nervous system (dose 200 mg/kg) is “depressant”. In data set [1], this molecule returned an LD50 of over 1000 mg/kg.
Turning to `NC1=NC(=O)C2(CCNCC2)O1` [2-amino-1-oxa-3,8-diazaspiro[4,5]dec-2-en-4-one], the Activity entry in the data set with central nervous system (dose 50 mg/kg) is “depressant”. The median lethal dose (LD50) in data set [1] was over 1000 mg/kg.
As to `CN1CCC2(CC1)OC(N)=NC2=O` [2-amino-8-methyl-1-oxa-3,8-diazaspiro[4,5]dec-2-en-4-one], the Activity result with central nervous system (dose 10 mg/kg) is “stimulant”. The “Mean Escape Time, Retention Trial” value in the data set with rats (intraperitoneal, 10 mg/kg) was 13.8 ± 1.4 s. Also, the “Mean Escape Time” value was 29.8 ± 0.3 s in the data set on rats (intraperitoneal, 10 mg/kg, acquisition trial 1); 29.5 ± 0.5 s in the data set with rats (intraperitoneal, 10 mg/kg, acquisition trial 2); 13.8 ± 1.7 s in the data set on rats (intraperitoneal, 10 mg/kg, acquisition trial 3); 12.0 ± 2.1 s in the data set on rats (intraperitoneal, 10 mg/kg, acquisition trial 4); 7.0 ± 1.6 s with rats (intraperitoneal, 10 mg/kg, acquisition trial 5); 7.8 ± 1.5 s with rats (intraperitoneal, 10 mg/kg, acquisition trial 6). For the same molecule, the “Mean Escape Time” value with rats (intraperitoneal, 10 mg/kg, acquisition trial 7) came out at 6.5 ± 1.6 s; in the data set with rats (intraperitoneal, 10 mg/kg, acquisition trial 8), 7.0 ± 2.2 s; in the data set on rats (intraperitoneal, 10 mg/kg, acquisition trial 9), 10.8 ± 3.0 s; with rats (intraperitoneal, 10 mg/kg, acquisition trial 10) it was 9.0 ± 1.2 s. The molecule also returned an LD50 in data set [1] of over 1000 mg/kg.
On to `CC(C)N1CCC2(CC1)OC(N)=NC2=O` [2-amino-8-isopropyl-1-oxa-3,8-diazaspiro-[4,5]dec-2-en-4-one], for which, in the data set with central nervous system (dose 100 mg/kg), the Activity entry is on record as “depressant”. Further, in data set [1], the LD50 came to 1000 mg/kg.
As for `CC1CC(C)CC2(C1)OC(N)=NC2=O` (stereo not drawn) [2-amino-7,9-dimethyl-1-oxa-3-aza-spiro[4,5]dec-2-en-4-one], in the data set on central nervous system (dose 1 mg/kg), the Activity result is given as “stimulant”. Besides, the “Mean Escape Time, Retention Trial” value with rats (oral, 20 mg/kg) is 6.7 ± 1.4 s. Further, the “Mean Escape Time” value with rats (oral, 20 mg/kg, acquisition trial 1) came to 30.0 ± 0.0 s; in the data set with rats (oral, 20 mg/kg, acquisition trial 2), 29.2 ± 0.4 s; with rats (oral, 20 mg/kg, acquisition trial 3), 20.0 ± 4.3 s; with rats (oral, 20 mg/kg, acquisition trial 4) it was 7.5 ± 2.9 s; with rats (oral, 20 mg/kg, acquisition trial 5) it was 4.7 ± 0.8 s; in the data set with rats (oral, 20 mg/kg, acquisition trial 6), 7.2 ± 2.0 s. Also, the “Mean Escape Time” value is 8.0 ± 1.6 s in the data set on rats (oral, 20 mg/kg, acquisition trial 7); 10.5 ± 3.7 s with rats (oral, 20 mg/kg, acquisition trial 8); 7.0 ± 1.2 s in the data set with rats (oral, 20 mg/kg, acquisition trial 9); 7.5 ± 2.1 s with rats (oral, 20 mg/kg, acquisition trial 10). In data set [1], the LD50 was about 300 mg/kg.
For `NC1=NC(=O)C2(CC3CCC2C3)O1` (stereo not drawn) [2'-aminospiro[norbornane-2,5'-[2]oxazolin]-4'-one], in the data set on central nervous system (dose 500 mg/kg), the Activity entry was “depressant”. Further, the LD50 in data set [1] is over 1000 mg/kg.
With `CC1CC(C)(C)CC2(C1)OC(N)=NC2=O` (stereo not drawn) [2-amino-7,7,9-trimethyl-1-oxa-3-azaspiro[4,5]dec-2-en-4-one], in the data set on central nervous system (dose 0.1 mg/kg), the Activity entry is given as “stimulant”. Further, the “Mean Escape Time, Retention Trial” value in the data set with rats (intraperitoneal, 20 mg/kg) came to 8.0 ± 2.6 s. Further, the “Mean Escape Time” value was found to be 30.0 ± 0.0 s with rats (intraperitoneal, 20 mg/kg, acquisition trial 1); 29.0 ± 0.4 s in the data set with rats (intraperitoneal, 20 mg/kg, acquisition trial 2); 21.2 ± 3.0 s in the data set with rats (intraperitoneal, 20 mg/kg, acquisition trial 3); 17.7 ± 5.4 s in the data set on rats (intraperitoneal, 20 mg/kg, acquisition trial 4); 14.7 ± 1.8 s in the data set with rats (intraperitoneal, 20 mg/kg, acquisition trial 5); 18.0 ± 3.9 s in the data set with rats (intraperitoneal, 20 mg/kg, acquisition trial 6). The “Mean Escape Time” value with rats (intraperitoneal, 20 mg/kg, acquisition trial 7) was 10.0 ± 2.1 s; with rats (intraperitoneal, 20 mg/kg, acquisition trial 8), 5.5 ± 1.8 s; in the data set with rats (intraperitoneal, 20 mg/kg, acquisition trial 9), 6.7 ± 2.5 s; with rats (intraperitoneal, 20 mg/kg, acquisition trial 10), 7.2 ± 2.8 s. The LD50 in data set [1] is over 750 mg/kg.
As to `NC1=NC(=O)C2(CCN(Cc3ccccc3)CC2)O1` [2-amino-8-benzyl-1-oxa-3,8-diazaspiro[4,5]dec-2-en-4-one], the Activity entry in the data set with central nervous system (dose 200 mg/kg) is “depressant”. This molecule showed an LD50 in data set [1] of over 1000 mg/kg.
The matching figures for `NC1=NC(=O)C2(CCN(CCc3ccccc3)CC2)O1` [2-amino-8-phenethyl-1-oxa-3,8-diazaspiro-[4,5]dec-2-en-4-one]: “depressant” and over 1000 mg/kg.
`CC1CC2(CC(C)C1C)OC(N)=NC2=O` (stereo not drawn) [2-amino-7,8,9-trimethyl-1-oxa-3-azaspiro[4,5]dec-2-en-4-one]: in the data set on central nervous system (dose 200 mg/kg), the Activity entry is “depressant”. The LD50 in data set [1] is over 1000 mg/kg.
In the case of `NC1=NC(=O)C2(CCC2)O1` [6-amino-5-oxa-7-azaspiro[3,4]oct-6-en-8-one], the Activity result with central nervous system (dose 200 mg/kg) is reported as “depressant”. In addition, the LD50 in data set [1] is over 500 mg/kg.
As to `CC1CCC2(CC1)OC(N)=NC2=O` (stereo not drawn) [2-amino-8-methyl-1-oxa-2-aza-spiro[4,5]dec-2-en-4-one], in the data set with central nervous system (dose 500 mg/kg), the Activity entry is reported as “depressant”. In data set [1], this molecule returned a median lethal dose (LD50) of over 1000 mg/kg.
On the same counts, the results for `NC1=NC(=O)C2(CCCCCC2)O1` [2-amino-1-oxa-3-azaspiro[4,6]undec-2-en-4-one] are “depressant” and over 1000 mg/kg.
Turning to `NC1=NC(=O)C2(CCCCCCC2)O1` [2-amino-1-oxa-3-azaspiro[4,7]dodec-2-en-4-one], the Activity result with central nervous system (dose 500 mg/kg) is given as “depressant”. For the same molecule, the LD50 in data set [1] was over 1000 mg/kg.
As for `CC1CCCC2(C1)OC(N)=NC2=O` (stereo not drawn) [2-amino-7-methyl-1-oxa-3-aza-spiro[4,5]dec-2-en-4-one], the Activity result with central nervous system (dose 200 mg/kg) is reported as “depressant”. Besides, the LD50 in data set [1] was about 750 mg/kg.
As to `CC1CC2(CC(C)N1C)OC(N)=NC2=O` (stereo not drawn) [2-amino-7,8,9-trimethyl-1-oxa-3,8-diazaspiro[4,5]-2-en-4-one], in the data set on central nervous system (dose 20 mg/kg), the Activity result is listed as “depressant”. This molecule came in with an LD50 in data set [1] of over 500 mg/kg.
Consider `NC1=NC(=O)C2(CCCC2)O1` [2-amino-1-oxa-3-azaspiro[4,4]non-2-en-4-one], for which the Activity result in the data set on central nervous system (dose 500 mg/kg) is “depressant”. The median lethal dose (LD50) in data set [1] was over 1000 mg/kg.
In the case of `NC1=NC(=O)C2(CCC3CCCCC3C2)O1` (stereo not drawn) [2'-amino-octahydrospiro[naphthalene-2(1H),5'-[2]oxazolin]-4'-one], the Activity result in the data set with central nervous system (dose 500 mg/kg) is “depressant”. The LD50 in data set [1] was over 1000 mg/kg.
